Data on eleven compounds can be found in PubChem BioAssay (NCI).

Test systems include 786-0 renal; A498 renal; HCT-15 colon; HOP-62 NSCLC; HOP-92 NSCLC; HS 578T breast; KM12 colon; M14 melanoma; MCF7 breast; MOLT-4 leukemia; NCI-H460 lung; OVCAR-3 ovarian; OVCAR-4 ovarian; PC-3 prostate.
What all share (assay): growth of human tumour cells (NCI), 48 h

The structures appear in SMILES notation.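 In this assay, cells in 96-well plates receive the compound at five concentrations for 48 hours. Endpoints are linearly interpolated between the surrounding concentrations. The concentration for full growth arrest is given as TGI.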 A value given as a limit tells only on which side of the number the result lay.

Regarding `CCOC(=O)C(C(=O)OCC)=C1NC2(c3ccccc3Nc3ccccc32)C(C#N)S1` (centres undefined), the TGI in the experiment on 786-0 renal was 23.8 µM; in the experiment with A498 renal it was 29.2 µM; with HCT-15 colon, 19.6 µM; with HOP-62 NSCLC, 27 µM; with HOP-92 NSCLC it was 15.6 µM; in the experiment on HS 578T breast, 46.3 µM. For the same compound, the TGI in the experiment on KM12 colon was found to be 19.2 µM; in the experiment with M14 melanoma, 19.8 µM; in the experiment on MCF7 breast, 13.3 µM; in the experiment with MOLT-4 leukemia, 10.1 µM; in the experiment with NCI-H460 lung, 15.2 µM; in the experiment with OVCAR-3 ovarian it was 4.78 µM. Moreover, the TGI turned out to be 18.5 µM in the experiment on OVCAR-4 ovarian and 16.8 µM in the experiment with PC-3 prostate.
Turning to `CCOC(=O)/C=C/CCO[Si](C)(C)C(C)(C)C`, the TGI in the experiment with 786-0 renal, in the experiment on A498 renal, with HCT-15 colon, in the experiment with HOP-62 NSCLC, with HOP-92 NSCLC and in the experiment on HS 578T breast was greater than 100 µM each time. Also, the TGI in the experiment on KM12 colon, in the experiment with MCF7 breast, with MOLT-4 leukemia, in the experiment with NCI-H460 lung, in the experiment with OVCAR-3 ovarian and in the experiment on OVCAR-4 ovarian was greater than 100 µM throughout. Besides, the TGI in the experiment with PC-3 prostate was greater than 100 µM.
`O=C1CSC2(CC(/C=C/c3cccc([N+](=O)[O-])c3)=NN2c2cccc(S(=O)(=O)O)c2)N1c1nc2ccccc2s1` (centres undefined): the TGI in the experiment on 786-0 renal is 31.8 µM; with A498 renal it was 52.5 µM; in the experiment on HCT-15 colon, 44.5 µM; with HOP-92 NSCLC, 40.3 µM; with HS 578T breast, greater than 100 µM; in the experiment on KM12 colon it was 42.2 µM. Further, the TGI was 92.6 µM with M14 melanoma; 37.2 µM with MCF7 breast; 64.9 µM in the experiment on MOLT-4 leukemia; 63.2 µM in the experiment on NCI-H460 lung; 72.1 µM in the experiment with OVCAR-4 ovarian; 51 µM in the experiment with PC-3 prostate.
Turning to `COc1ccc(/C(Br)=C2\OC(=O)c3ccccc32)cc1`, the TGI in the experiment on 786-0 renal, in the experiment with HCT-15 colon, in the experiment on HOP-62 NSCLC, in the experiment with HOP-92 NSCLC, with HS 578T breast and in the experiment on KM12 colon was greater than 10 µM throughout. For the same compound, the TGI in the experiment with M14 melanoma, with MCF7 breast, with MOLT-4 leukemia, in the experiment on NCI-H460 lung, in the experiment with OVCAR-3 ovarian and with OVCAR-4 ovarian was greater than 10 µM in each case. The compound further showed a TGI in the experiment with PC-3 prostate greater than 10 µM.
On to `CCC(=O)C(CCN1CCC2(CCCc3ccccc32)CC1)(c1ccccc1)c1ccccc1`, for which the TGI amounted to 6.09 µM in the experiment on 786-0 renal; 6.11 µM with A498 renal; 15.1 µM with HCT-15 colon; 8.91 µM in the experiment on HOP-62 NSCLC; 4.03 µM with HOP-92 NSCLC; 7.02 µM with HS 578T breast. Besides, the TGI stood at 4.64 µM in the experiment with KM12 colon; 4.56 µM with M14 melanoma; 10.9 µM with MCF7 breast; 9.4 µM with NCI-H460 lung; 6.67 µM with OVCAR-3 ovarian; 18.7 µM with OVCAR-4 ovarian. In addition, the TGI in the experiment with PC-3 prostate stood at 8.87 µM.
For the compound `[N-]=[N+]=NI1OC(=O)c2ccccc21`, the TGI with 786-0 renal, in the experiment with A498 renal, in the experiment with HCT-15 colon, with HOP-62 NSCLC, in the experiment on HOP-92 NSCLC and in the experiment with HS 578T breast was greater than 100 µM each time. Also, the TGI with KM12 colon, in the experiment on M14 melanoma, with MCF7 breast, with MOLT-4 leukemia, in the experiment on OVCAR-3 ovarian and in the experiment on OVCAR-4 ovarian was greater than 100 µM throughout. In the experiment with PC-3 prostate, this compound gave a TGI greater than 100 µM.
`COc1ccc(OC)c(CNc2ccc(C(=O)O)cc2)c1`: the TGI in the experiment on 786-0 renal, with A498 renal, with HCT-15 colon, with HOP-92 NSCLC, in the experiment on HS 578T breast and in the experiment on KM12 colon was greater than 100 µM each time. For the same compound, the TGI in the experiment with M14 melanoma, in the experiment with MCF7 breast, in the experiment with MOLT-4 leukemia, in the experiment on OVCAR-3 ovarian, with OVCAR-4 ovarian and with PC-3 prostate was greater than 100 µM each time.
Take `COC(=O)C(CCSC)NC(=O)CNC(=O)CSc1nnc(COc2ccc(Cl)cc2)n1-c1ccccc1` (centres undefined): the TGI is 29.5 µM in the experiment on 786-0 renal; 95.7 µM in the experiment with A498 renal; 37.8 µM in the experiment on HCT-15 colon; 34.9 µM with HOP-62 NSCLC; 32 µM in the experiment with HOP-92 NSCLC; 53.1 µM in the experiment on HS 578T breast. The TGI in the experiment with KM12 colon was 44.6 µM; in the experiment with M14 melanoma, 33.6 µM; in the experiment on MCF7 breast it was 39.6 µM; with MOLT-4 leukemia it was greater than 100 µM; in the experiment on NCI-H460 lung, 31.7 µM; in the experiment on OVCAR-4 ovarian, 50.1 µM. Moreover, the TGI in the experiment with PC-3 prostate is 30.2 µM.
With `CC(C)(C)C1=CC(C)(n2[nH]c(=O)n(-c3ccccc3)c2=O)C=C(C(C)(C)C)C1=O`, the TGI in the experiment with 786-0 renal, in the experiment with A498 renal, in the experiment on HCT-15 colon, with HOP-92 NSCLC, with HS 578T breast and in the experiment with KM12 colon was greater than 100 µM in each case. Also, the TGI with MCF7 breast, in the experiment with NCI-H460 lung, in the experiment on OVCAR-4 ovarian and in the experiment with PC-3 prostate was greater than 100 µM in each case.
For the compound `CCOC(=O)c1sc2nc(SC)nc3c2c1NCN3c1ccc2c(c1)OCO2`, the TGI with 786-0 renal is 15 µM; with A498 renal, 87.4 µM; with HCT-15 colon it was greater than 100 µM; in the experiment on HOP-62 NSCLC it was 18.7 µM; in the experiment with HOP-92 NSCLC, 32.4 µM; with HS 578T breast, 8.07 µM. The TGI was greater than 100 µM with KM12 colon; 71.2 µM with M14 melanoma; greater than 100 µM with MCF7 breast; 78.8 µM in the experiment on MOLT-4 leukemia; 50 µM in the experiment with OVCAR-3 ovarian; 26.4 µM in the experiment with OVCAR-4 ovarian. Also, in the experiment on PC-3 prostate, the TGI was determined as 37.2 µM.
As to `N#Cc1c2c(c(N)oc1=O)C(c1ccccc1)CC(=O)N2` (centres undefined), the TGI in the experiment on 786-0 renal, in the experiment on HCT-15 colon, in the experiment with HOP-62 NSCLC, with HOP-92 NSCLC, with HS 578T breast and with KM12 colon was greater than 100 µM in each case. In addition, the TGI in the experiment on M14 melanoma, in the experiment on MCF7 breast, with MOLT-4 leukemia, with NCI-H460 lung, in the experiment on OVCAR-3 ovarian and in the experiment with OVCAR-4 ovarian was greater than 100 µM each time. For the same compound, in the experiment with PC-3 prostate, the TGI is greater than 100 µM.
